Data reported in patent publication US20030013660A1, “Dioxolane analogs for improved inter-cellular delivery” (Shire BioChem Inc., priority 2000, published 2003).
Where “and” joins values, the source holds several entries; their conditions need not be identical. Identical values can stand only once. Like-named read-outs stand apart in the source and are kept apart here.

Experiments:
H-460 = test: 3H-TdR (3H-thymidine) incorporation assay at 72 hr; type: cell-based, Human; settings: 3H-TdR incorporation at 72 hr
CEM/dCK- [1] = test: 3H-TdR (3H-thymidine) incorporation assay at 72 hr; type: cell-based; settings: for IC50: deoxycytidine kinase-deficient CCRF-CEM
Procedure: Table of IC50 Values (μM) for Controls
(§1) Exposition of 24 hr to drug, wash, incubated for another 48 hr (total of 72 hr assay)
(§2) (3H-Thymidine Incorporation Assay)

MCF-7 = test: 3H-TdR (3H-thymidine) incorporation assay at 72 hr; type: cell-based, Human; settings: 3H-TdR incorporation at 72 hr
SF-268 = test: 3H-TdR (3H-thymidine) incorporation assay at 72 hr; type: cell-based, Human; settings: Homo sapiens, SF-268, read-out: IC50 SF-268 24 h, 24 h drug exposure, wash, another 48 hr; 3H-TdR incorporation at 72 hr
CEM/dCK- [2] = test: 3H-TdR incorporation at 72 hr (24 hr drug exposure, wash, 48 hr); type: cell-based; settings: read-out: IC50 in μM (3H-TdR incorporation at 72 hr) CEM/dCK- 24 h; CCRF-CEM deoxycytidine kinase-deficient; 24 h drug exposure, 72 hr assay
Procedure: as §1, §2

[3] = Homo sapiens, NCI-H460, read-out: IC50 H-460 24 h, 24 h drug exposure, wash, another 48 hr
[4] = read-out: IC50 H-460 24 h, 24 h drug exposure, wash, another 48 hr
[5] = Homo sapiens, CCRF-CEM, read-out: IC50 CEM/dCK- 24 h, 24 h drug exposure, wash, another 48 hr
[6] = Homo sapiens, MCF7, read-out: IC50 MCF-7 24 h, 24 h drug exposure, wash, another 48 hr
[7] = read-out: IC50 MCF-7 24 h, 24 h drug exposure, wash, another 48 hr

| SMILES | IC50 (CEM/dCK- [1]; [5]) | IC50 (MCF-7; [6]) | IC50 (MCF-7; [7]) | also measured |
| --- | --- | --- | --- | --- |
| CCCCNC(=O)OC[C@H]1OC[C@@H](n2ccc(N)nc2=O)O1 [Compound 48, BUTYL-CARBAMIC ACID 4- (4-AMINO-2-OXO-2H- PYRIMIDIN-1-YL)- [1,3]DIOXOLAN-2- YLMETHYL ESTER] | > 100000 nM | – | – | IC50 (H-460; [3]): 340 nM; IC50 (H-460; [4]): 590 nM |
| CCCCCCOC(=O)Nc1ccn([C@@H]2CO[C@H](CO)O2)c(=O)n1 [Compound 61, [1-(2-HYDROXYMETHYL- [1,3]DIOXOLAN-4-YL)-2- OXO-1,2-DIHYDRO- PYRIMIDIN-4-YL]- CARBAMIC ACID HEXYL ESTER] | > 100000 nM | – | – | – |
| CC(C)(C)OC(=O)N(CCCCCC(=O)OC[C@H]1OC[C@@H](n2ccc(N)nc2=O)O1)Cc1ccccc1 [Compound 66, 6-(Benzyl-tert-butoxycarbonyl-amino)-hexanoic acid 4-(4-amino-2-oxo-2H-pyrimidin-1-yl)-[1,3]dioxolan-2-ylmethyl ester] | – | < 0.1 nM | 0.074 nM | – |
| Cc1cccc(C)c1C(=O)OC[C@H]1OC[C@@H](n2ccc(/N=C\N(C)C)nc2=O)O1 [Compound 87, (2S,4S)-2-(2″,6″- DIMETHYLBENZOYLOXYMETHY L)-4-(4′-N,N- DIMETHYLAMINOMETHLYENE- CYTOSIN-1′-YL)-1,3- DIOXOLANE] | > 100000 nM | – | – | – |
| CCNc1ccn([C@@H]2CO[C@H](COCC)O2)c(=O)n1 [Compound 93, 1-(2′(S)-ETHOXYMETHYL- [1,3]DIOXOLAN-4′(S)- YL)-4-ETHYLAMINO-1H- PYRIMIDIN-2-ONE] | > 100000 nM | – | – | IC50 (SF-268): > 100000 nM |
| CC(C)[C@@H]1CC[C@@H](C)C[C@H]1OC(=O)Nc1ccn([C@@H]2CO[C@H](CO)O2)c(=O)n1 [Compound 94, [1-(2-Hydroxymethyl-[1,3]dioxolan-4-yl)-2-oxo-1,2-dihydro-pyrimidin-4-yl]-carbamic acid 2-isopropyl-5-methyl-cyclohexyl ester] | 51000 nM | 24000 nM | 13000 nM | IC50 (CEM/dCK- [1]; read-out: IC50 CEM/dCK- 24 h, 24 h drug exposure, wash, another 48 hr): 85000 nM |
| CC(C)[C@@H]1CC[C@@H](C)C[C@H]1OC(=O)OC[C@H]1OC[C@@H](n2ccc(N)nc2=O)O1 [Compound 95, Carbonic acid 4-(4-amino-2-oxo-2#H!- pyrimidin-1-yl)-[1,3]dioxolan-2-ylmethyl ester 2-isopropyl-5-methyl-cyclohexyl ester] | – | 150 nM | 100 nM | IC50 (H-460; [3]): < 0.1 nM |
| Nc1ccn([C@@H]2CO[C@H](COCc3ccccc3)O2)c(=O)n1 [Compound 98, (2S,4S) 4-AMINO-1-(2- BENZYLOXYMETHYL- [1,3]DIOXOLAN-4-YL)-1H- PYRIMIDIN-2-ONE] | > 100000 nM | 130 nM | 150 nM and 220 nM | – |
| CC(C)c1cc(C(C)C)c(C(=O)OC[C@H]2OC[C@@H](n3ccc(N)nc3=O)O2)c(C(C)C)c1 [Compound 100, 2,4,6-Triisopropyl-benzoic acid 4-(4-amino-2-oxo-2H-pyrimidin-1-yl)-[1,3]dioxolan-2-ylmethyl ester] | – | – | – | IC50 (H-460; [3]): 30 nM; IC50 (H-460; [4]): 44 nM |
| CC(C(=O)OC[C@H]1OC[C@@H](n2ccc(N)nc2=O)O1)c1ccccc1.Cl (stereo partly shown) [Compound 106] | – | – | – | Factor* (Resistance Factor = Ratio of dCK- on Wild-type CCRF-CEM) (CEM/dCK- [1]; ratio of IC50 CEM/dCK- to CCRF-CEM, 24 h): 4,600 |
| CCCCCCN(CCCCCC)C(=O)OC[C@H]1OC[C@@H](n2ccc(N)nc2=O)O1 [Compound 135, DIHEXYLCARBAMIC ACID 4(S)-(4′-AMINO-2′-OXO- 2H-PYRIMIDIN-1′-YL)- [1,3]DIOXOLAN-2(S)- YLMETHYL ESTER] | – | – | – | IC50 (SF-268): 250 nM |
| CC(C)(C(=O)OC[C@H]1OC[C@@H](n2ccc(N)nc2=O)O1)c1ccccc1[N+](=O)[O-] [Compound 155, (2S,4S)-2-[2″-(2″′- NITROPHENYL)-2″- METHYLPROPIONYLOXYMETHY L]-4-CYTOSIN-1′-YL-1,3- DIOXOLANE] | > 100000 nM | – | – | – |
| CN(C)/C=N/c1ccn([C@@H]2CO[C@H](COC(=O)C(C)(C)CCC(=O)N(Cc3ccccc3)C(=O)OC(C)(C)C)O2)c(=O)n1 [Compound 166, 5-(Benzyl-tert-butoxycarbonyl-amino)-2,2-dimethyl-5-oxo-pentanoic acid 4-[4-(dimethylamino-methyleneamino)-2-oxo-2H-pyrimidin-1-yl]-[1,3]dioxolan-2-ylmethyl ester] | – | – | – | IC50 (CEM/dCK- [2]): 10 µM |
